System: mice
Assay: Transition-matrix analysis of behavior of drug-treated mice, coded by human observers (Figure 13)
Assay type: in vivo
Conditions: average matrix of drug treated mice normalized to control (vehicle) matrix; increase
Protocol: Testing drugs several times and comparing the results can address replication. Significance is illustrated in Figure 13, where exemplary data is shown from an experiment in which mice were treated with one of the indicated drugs ensuing behavior was recorded and later coded by human observers. In the analysis of transition matrices, the average matrix of the drug treated mice was combined with the average matrix of the control mice. The control data was treated as the "population" data as it was expected to have very large numbers from mice treated with same vehicle as more and more experiments that require such vehicle are conducted.
Referring again to Figure 13, the average transition matrix was transformed as a z-score matrix based on the mean and standard error of the control matrix. In doing so, every drug transition (fd,i) subtracted the corresponding control transition (fc,i) and divided by the standard error (sc,i), as in zd,i=((fd,i)-(fc,i))/(sc,i) was obtained. Although this is just one possible way to normalize the data (e.g., student t-scores can also be calculated), it has some intuitive appeal, as the z-scores can now be read as distance from the control in standard-deviation units. Thus, in Figure 13, the first cell of the matrix corresponding to chlordiazepoxide (CDP), can be read as "CDP increased the number of rear-rear transitions more than 30 fold". […]

## CNC1=Nc2ccc(Cl)cc2C(c2ccccc2)=[N+]([O-])C1 [CDP, chlordiazepoxide]
  number of rear-rear transitions (first cell of the z-score transition matrix): more than 30 fold

From US20030083822A2, “SYSTEMS AND METHODS FOR […] INFORMATICS” (PsychoGenics, Inc., priority 2001, published 2003)
